Earlier results, collected in PMC7732027 (Bioorganic & medicinal chemistry letters, 2019).

Tested on: A/H3N2 viruses with PA I38T/F substitutions
Conditions: cited from earlier work

In the case of `COC(=O)OCOc1c2n(ccc1=O)N([C@@H]1c3ccccc3SCc3c1ccc(F)c3F)[C@@H]1COCCN1C2=O` [BXM, baloxavir marboxil], the “reduction in BXM susceptibility” value is listed as “more than 10 fold”.
